Experimental data as given in patent publication US9994556B2, “Triazole modified coumarin and biphenyl amide-based HSP90 inhibitors” (THE UNIVERSITY OF KANSAS, priority 2014, dated 2018).
Like-named read-outs stand apart in the source and are kept apart here.

Experiments:
Assay type in all cases: cell-based
MDA-MB-468LN cell line = test: Promega CellTiter-Glo (CTG) luminescent assay, MDA-MB-468LN; settings: Homo sapiens, 72 hr, mean ± standard deviation
Method: (§1) b) Promega CellTiter-Glo (CTG) Luminescent Assay
(§2) Antiproliferative activities against MDA-MB-468LN, MDA1986 and JMAR cell lines were performed with 384-well white plates with the Promega CellTiter-Glo (CTG) luminescent assay with 72 hr compound treatment. Data analysis was performed using GraphPad Prism. Selected data were further checked with MTS/PMS cell viability assay with 96-well plates, which correlated well with Promega CellTiter-Glo luminescent assay.

MDA1986 cell line = test: Promega CellTiter-Glo (CTG) luminescent assay, MDA1986; settings: 72 hr, mean ± standard deviation, read-out: IC50 MDA1986
Method: as §1, §2

SKBr3 cells = test: MTS/PMS cell viability assay, SKBr3; settings: Homo sapiens, SK-BR-3, 72 hr, mean ± standard deviation, read-out: IC50 SKBr3
Method: (§3) a) MTS/PMS Cell Viability Assay (SKBr3 and MCF-7 Cells)
(§4) Cells were maintained in a 1:1 mixture of Advanced DMEM/F12 (Gibco) supplemented with non-essential amino acids, L-glutamine (2 mM), streptomycin (500 μg/mL), penicillin (100 units/mL), and 10% FBS. Cells were grown to confluence in a humidified atmosphere (37° C., 5% CO2), seeded (2000/well, 100 μL) in 96-well plates, and allowed to attach overnight. Compound at varying concentrations in DMSO (1% DMSO final concentration) was added, and cells were returned to the incubator for 72 hr. At 72 hr, the number of viable cells was determined using an MTS/PMS cell proliferation kit (Promega) per the manufacturer's instructions. Cells incubated in 1% DMSO were used at 100% proliferation, and values were adjusted accordingly. IC50 values were calculated from separate experiments performed in triplicate using GraphPad Prism.

PC3-MM2 cells = test: Sulforhodamine B assay, PC3-MM2; settings: Homo sapiens, PC3MM2, mean ± standard deviation
Method: (§5) c) Sulforhodamine B Assay
(§6) The sulforhodamine B assay is used to measure drug-induced cytotoxicity and cell proliferation for large-scale drug-screening applications. Its principle is based on the ability of the protein dye sulforhodamine B to bind electrostatically on pH dependent protein basic amino acid residues of trichloroacetic acid-fixed cells. The aim is to evaluate samples showing selective growth inhibition or cell killing of particular tumor cell lines.
(§7) The SRB assay is performed by treating cells using a 10 point dose-response curve. The cells are fixed with trichloroacetic acid solution and stained with sulforhodamine B dye. The stained cells are then solubilized with 10 mM Tris buffer and read for absorbance at 565 nm.
(§8) Percentage growth is calculated at each of the drug concentration levels using the absorbance raw data.
(§9) Percentage growth inhibition is calculated as: [(Ti−Tz)/(C−Tz)]×100 for concentrations for which Ti≥Tz. [(Ti−Tz)/(Tz)]×100 for concentrations for which Ti<Tz.
(§10) Ti=Absorbance of wells at a given drug concentration level.
(§11) Tz=Absorbance time zero wells
(§12) C=Absorbance of untreated wells (media and cells only)
(§13) After growth inhibition values have been calculated, the data is plotted on Graphpad Prism software. Data is entered and plotted on a sigmoidal dose-response curve using non-linear regression.

LNCaP cells = test: Sulforhodamine B assay, LNCaP; settings: Homo sapiens, mean ± standard deviation
Method: as §5, §6, §7, §8, §9, §10, §11, §12, §13

MCF-7 cells = test: MTS/PMS cell viability assay, MCF-7; settings: Homo sapiens, MCF7, 72 hr, mean ± standard deviation, read-out: IC50 MCF-7
Method: as §3, §4

JMAR cell line = test: Promega CellTiter-Glo (CTG) luminescent assay, JMAR; settings: 72 hr, mean ± standard deviation
Method: as §1, §2

[1] = Table 2 biphenyl triazole analogues
[2] = Table 1 coumarin-based triazoles
[3] = Table 1 coumarin-based triazoles, at least two experiments in triplicate

Row | Compound | IC50 (MDA-MB-468LN cell line; [1]) | IC50 (MDA1986 cell line; [1]) | IC50 (SKBr3 cells; [1]) | IC50 (PC3-MM2 cells; [1]) | IC50 (LNCaP cells; [1]) | IC50 (MCF-7 cells; [1]) | IC50 (JMAR cell line; [1]) | IC50 (MDA-MB-468LN cell line; [2]) | IC50 (MDA1986 cell line; [2]) | IC50 (SKBr3 cells; [3]) | IC50 (PC3-MM2 cells; [2]) | IC50 (LNCaP cells; [2]) | IC50 (MCF-7 cells; [2]) | IC50 (JMAR cell line; [2])
1 | CN1CCC(Oc2ccc(-c3ccc(NC(=O)c4cn(Cc5ccc(Cl)cc5)nn4)cc3)cc2)CC1 [5d, 1-(4-Chlorobenzyl)-N-(4′-((1-methylpiperidin-4-yl)oxy)-[1, 1′-biphenyl]-4-yl)-1H-1,2,3-triazole-4-carboxamide] | 0.74 ± 0.19 µM | 1.3 ± 0.37 µM | 0.32 ± 0.1 µM | 0.66 ± 0.21 µM | 1.59 ± 0.78 µM | 0.44 ± 0.04 µM | 2.3 ± 0.82 µM |  |  |  |  |  |  | 
2 | Cc1ccc(-n2cc(C(=O)Nc3cc4ccc(OC5CCN(C)CC5)c(C)c4oc3=O)nn2)cc1 [4e, 1-(4-methylphenyl)-N-(8-methyl-7-((1-methylpiperidin-4-yl)oxy)-2-oxo-2H-chromen-3-yl)-1H-1,2,3-triazole-4-carboxamide] |  |  |  |  |  |  |  | 4 ± 1.92 µM | 0.29 µM | 1.08 ± 0.05 µM | > 100 µM | > 100 µM | 1.38 ± 0.07 µM | 3.64 µM
3 | Cc1c(OC2CCN(C)CC2)ccc2cc(NC(=O)c3cn(Cc4ccc(F)cc4)nn3)c(=O)oc12 [4m, 1-(4-Fluorobenzyl)-N-(8-methyl-7-((1-methylpiperidin-4-yl)oxy)-2-oxo-2H-chromen-3-yl)-1H-1,2,3-triazole-4-carboxamide] |  |  |  |  |  |  |  | 2.6 ± 6.12 µM | 1.77 ± 4.1 µM | 1.08 ± 0.01 µM | 8.82 ± 1.14 µM | 3.31 µM | 1.34 ± 0.19 µM | 2.38 ± 5.38 µM
4 | CN1CCC(Oc2ccc(-c3ccc(NC(=O)c4cn(Cc5cccc(Cl)c5)nn4)cc3)cc2)CC1 [5k, 1-(3-Chlorobenzyl)-N-(4′-((1-methylpiperidin-4-yl)oxy)-[1,1′-biphenyl]-4-yl)-1H-1,2,3-triazole-4-carboxamide] | 0.17 ± 0.02 µM | 0.17 ± 0.12 µM | 0.39 ± 0.01 µM | 0.35 ± 0.14 µM | 0.12 ± 0.1 µM | 0.34 ± 0.02 µM | 0.27 ± 0.04 µM |  |  |  |  |  |  | 
5 | CN1CCC(Oc2ccc(-c3ccc(NC(=O)c4cn(-c5ccccc5)nn4)cc3)cc2)CC1 [5a, N-(4′-((1-methylpiperidin-4-yl)oxy)-[1,1′-biphenyl]-4-yl)-1-phenyl-1H-1,2,3-triazole-4-carboxamide] | 0.83 ± 0.16 µM | 1.3 ± 0.09 µM | 1.14 ± 0.1 µM | 4.26 ± 5.59 µM | 3.89 ± 1.09 µM | 1.44 ± 0.18 µM | 2.2 ± 0.24 µM |  |  |  |  |  |  | 
6 | Cc1c(OC2CCN(C)CC2)ccc2cc(NC(=O)c3cn(Cc4ccc(Cl)cc4)nn3)c(=O)oc12 [4g, 1-(4-Chlorobenzyl)-N-(8-methyl-7-((1-methylpiperidin-4-yl)oxy)-2-oxo-2H-chromen-3-yl)-1H-1,2,3-triazole-4-carboxamide] |  |  |  |  |  |  |  | 2.2 ± 0.3 µM | 1.7 ± 0.52 µM | 1.14 ± 0.19 µM | 3.67 ± 1.38 µM | 4.65 ± 0.71 µM | 1.44 ± 0.31 µM | 1.7 ± 0.2 µM
7 | CN1CCC(Oc2ccc(-c3ccc(NC(=O)c4cn(Cc5ccc(C(C)(C)C)cc5)nn4)cc3)cc2)CC1 [5h, 1-(4-tert-Butylbenzyl)-N-(4′-((1-methylpiperidin-4-yl)oxy)-[1,1′-biphenyl]-4-yl)-1H-1,2,3-triazole-4-carboxamide] | 2.61 ± 0.76 µM | 2.34 ± 1.81 µM | 3.72 ± 0.68 µM | > 100 µM | 1.01 ± 1.39 µM | 10.5 ± 0.4 µM | 3.49 ± 2.05 µM |  |  |  |  |  |  | 
8 | CN1CCC(Oc2ccc(-c3ccc(NC(=O)c4cn(Cc5ccc([N+](=O)[O-])cc5)nn4)cc3)cc2)CC1 [5i, 1-(4-Nitrobenzyl)-N-(4′-((1-methylpiperidin-4-yl)oxy)-[1,1′-biphenyl]-4-yl)-1H-1,2,3-triazole-4-carboxamide] | 0.56 ± 0.25 µM | 0.19 ± 0.17 µM | 0.45 ± 0.04 µM | 1.03 ± 0.16 µM | 0.6 ± 0.34 µM | 0.55 ± 0.01 µM | 0.21 ± 0.35 µM |  |  |  |  |  |  | 
9 | Cc1c(OC2CCN(C)CC2)ccc2cc(NC(=O)c3cn(-c4ccc(Cl)cc4)nn3)c(=O)oc12 [4c, 1-(4-chlorophenyl)-N-(8-methyl-7-((1-methylpiperidin-4-yl)oxy)-2-oxo-2H-chromen-3-yl)-1H-1,2,3-triazole-4-carboxamide] |  |  |  |  |  |  |  | 0.81 ± 0.15 µM | 0.18 ± 0.11 µM | 0.58 ± 0.03 µM | 2.79 ± 0.49 µM | 2.45 ± 0.47 µM | 2.04 ± 0.25 µM | 0.43 ± 0.38 µM
10 | CN1CCC(Oc2ccc(-c3ccc(NC(=O)c4cn(Cc5ccccc5Cl)nn4)cc3)cc2)CC1 [5m, 1-(2-Chlorobenzyl)-N-(4′-((1-methylpiperidin-4-yl)oxy)-[1,1′-biphenyl]-4-yl)-1H-1,2,3-triazole-4-carboxamide] | 0.22 ± 0.03 µM | 0.81 ± 0.05 µM | 0.34 ± 0.04 µM | 1.04 ± 0.51 µM | 0.61 ± 0.34 µM | 0.38 ± 0.03 µM | 0.65 µM |  |  |  |  |  |  | 
11 | Cc1c(OC2CCN(C)CC2)ccc2cc(NC(=O)c3cn(Cc4ccc(Br)cc4)nn3)c(=O)oc12 [4h, 1-(4-Bromobenzyl)-N-(8-methyl-7-((1-methylpiperidin-4-yl)oxy)-2-oxo-2H-chromen-3-yl)-1H-1,2,3-triazole-4-carboxamide] |  |  |  |  |  |  |  | 2.1 ± 0.6 µM | 2 ± 0.5 µM | 0.73 ± 0.01 µM | 3.8 ± 1.42 µM | 4.96 ± 0.67 µM | 1.36 ± 0.08 µM | 1.6 ± 0.31 µM
12 | CN1CCC(Oc2ccc(-c3ccc(NC(=O)c4cn(CC5CCCCC5)nn4)cc3)cc2)CC1 [5o, 1-(Cyclohexylmethyl)-N-(4′-((1-methylpiperidin-4-yl)oxy)-[1,1′-biphenyl]-4-yl)-1H-1,2,3-triazole-4-carboxamide] | 0.24 ± 0.06 µM | 0.38 ± 0.14 µM | 0.2 ± 0.02 µM | 5.12 ± 6.54 µM | 0.48 ± 0.68 µM | 0.31 ± 0.04 µM | 0.26 ± 0.45 µM |  |  |  |  |  |  | 
13 | Cc1c(OC2CCN(C)CC2)ccc2cc(NC(=O)c3cn(Cc4cccc(Cl)c4)nn3)c(=O)oc12 [4n, 1-(3-Chlorobenzyl)-N-(8-methyl-7-((1-methylpiperidin-4-yl)oxy)-2-oxo-2H-chromen-3-yl)-1H-1,2,3-triazole-4-carboxamide] |  |  |  |  |  |  |  | 1.14 ± 1.17 µM | 0.23 ± 0.22 µM | 1.06 ± 0.01 µM | 6 ± 1.13 µM | 3.03 ± 0.05 µM | 1.68 ± 0.01 µM | 0.19 ± 0.1 µM
14 | COc1ccc(Cn2cc(C(=O)Nc3cc4ccc(OC5CCN(C)CC5)c(C)c4oc3=O)nn2)cc1 [4j, 1-(4-Methoxybenzyl)-N-(8-methyl-7-((1-methylpiperidin-4-yl)oxy)-2-oxo-2H-chromen-3-yl)-1H-1,2,3-triazole-4-carboxamide] |  |  |  |  |  |  |  | 3.4 ± 1.27 µM | 2.6 ± 0.3 µM | 1.31 ± 0.2 µM | 7.85 ± 0.42 µM | > 100 µM | 1.42 ± 0.14 µM | 6.7 µM
15 | Cc1ccc(Cn2cc(C(=O)Nc3ccc(-c4ccc(OC5CCN(C)CC5)cc4)cc3)nn2)c(Cl)c1 [5n, 1-(2-Chloro-4-methylbenzyl)-N-(4′-((1-methylpiperidin-4-yl)oxy)-[1,1′-biphenyl]-4-yl)-1H-1,2,3-triazole-4-carboxamide] | 0.15 ± 0.02 µM | 0.15 ± 0.06 µM | 0.16 ± 0.01 µM | 0.35 ± 0.12 µM | 0.05 ± 0.04 µM | 0.2 ± 0.05 µM | 0.43 ± 0.25 µM |  |  |  |  |  |  | 
16 | Cc1c(OC2CCN(C)CC2)ccc2cc(NC(=O)c3cn(CCCc4ccccc4)nn3)c(=O)oc12 [4s, N-(8-methyl-7-((1-methylpiperidin-4-yl)oxy)-2-oxo-2H-chromen-3-yl)-1-(3-phenylpropyl)-1H-1,2,3-triazole-4-carboxamide] |  |  |  |  |  |  |  |  |  | 1.73 ± 0.05 µM |  |  | 1.65 ± 0.03 µM | 
